Measurements as given in US20220401514A1, “ANTIMICROBIAL, BACTERIOPHAGE-DERIVED POLYPEPTIDES AND THEIR USE AGAINST GRAM-NEGATIVE AND ACID-FAST BACTERIA” (CONTRAFECT CORPORATION, priority 2019, published 2022).

How the values were obtained:
[1] = system: Klebsiella pneumoniae strain 1139; assay: Checkerboard assay (FICI) with antibiotics, K. pneumoniae; type: cell-based
Protocol: (§1) Checkerboard assays. […] Checkerboards were constructed by first preparing columns of a 96-well polypropylene microtiter plate, in which each well had the same amount of antibiotic diluted 2-fold along the horizontal axis. […] Summation fractional inhibitory concentration index (FICIs) were calculated for each drug and the minimum FICI was used to determine synergy. FICIs were calculated as follows: FICI=FIC A+FIC B, where FIC A is the MIC of each antibiotic in the combination/MIC of the each antibiotic alone, and FIC B is the MIC of each Chp peptide in the combination/MIC of each Chp peptide alone. The combination is considered synergistic when the FICI is ≤0.5, strongly additive when the FICI is >0.5 to <1, additive with the FICI is 1-<2, and antagonistic when the FICI is ≥2.

[2] = system: carbapenem-resistant bacterial strains; assay: organism not typed; type: cell-based; details: carbapenem-resistant isolate PA23
Description: Determination of Minimal Inhibitory Concentrations (MIC).

[3] = system: P. aeruginosa strain CFS-1292; assay: Checkerboard assay (FICI) with antibiotics, P. aeruginosa; type: cell-based, Pseudomonas aeruginosa; details: for Antibiotic FIC: P. aeruginosa CFS-1292; for Antibiotic MIC in checkerboard: P. aeruginosa CFS-1292, CAA + […] human serum
Protocol: Any known method to assess MIC may be used.
Checkerboards are constructed by first preparing columns of e.g., a 96-well polypropylene microtiter plate, wherein each well has the same amount of antibiotic diluted 2-fold along the horizontal axis. […] Bacteria are added to the drug combinations at concentrations of 1×10^5 […] in CAA, for example, with or without human serum or pulmonary surfactant. […] Summation fractional inhibitory concentrations (ΣFICs) are calculated for each drug and the minimum ΣFIC value (ΣFICmin) is used to determine the effect of the Chp peptide/antibiotic combination.
as §1
In the checkerboard assay, fractional inhibitory concentration index (FICI) values are calculated.

[4] = system: Stenotrophomonas-containing biofilm on explanted hemodialysis catheters; assay: Antibiofilm activity in explanted hemodialysis catheters; type: cell-based, Stenotrophomonas spp.
Protocol: The explanted hemodialysis catheters were cut into equal length segments and bisected to expose the lumen.
The samples were treated for 4 hours at 37° C. before rinsing with Lactated Ringer's solution.
Three additional infected hemodialysis catheter samples were removed from two patients (one catheter from a first patient and two catheters from a second patient). […] The samples were incubated at 37° C. for 4 hours.

[5] = system: Acinetobacter baumannii strain 30; assay: Checkerboard assay (FICI) with antibiotics, A. baumannii; type: cell-based; details: checkerboard
Protocol: as §1
The results are shown below in Tables 22-27.

[6] = checkerboard, in combination with Chp4-M1
[7] = checkerboard, in combination with Chp6-M1
[8] = checkerboard, in combination with Chp10-M1

C[C@@H](O)[C@H]1C(=O)N2C(C(=O)O)=C(S[C@@H]3CN[C@H](C(=O)N(C)C)C3)[C@H](C)[C@H]12 [meropenem, reference compound]
8 µg/mL: MIC [2]
3.16 log10 CFU/g: log10 CFU/g ([4]; second catheter sample from the second patient, 1 μg/mL, 4 hours)
2 µg/mL: Antibiotic MIC in checkerboard ([3]; combined with Chp10-M1)
0.125: Antibiotic FIC [1, 6] | Antibiotic FIC [1, 8] | Antibiotic FIC ([5]; in combination with Chp10-M1)
0.25: Antibiotic FIC [1, 7] | Antibiotic FIC ([1]; combined with Chp2) | Antibiotic FIC ([1]; combined with Chp2-M1) | Antibiotic FIC ([3]; combined with Chp2-M1) | Antibiotic FIC ([3]; combined with Chp2) | Antibiotic FIC ([3]; combined with Chp4-M1) | Antibiotic FIC ([3]; combined with Chp6-M1) | Antibiotic FIC ([3]; combined with Chp10-M1) | Antibiotic FIC ([3]; combined with Unp2-M1) | Antibiotic FIC ([5]; in combination with Chp2) | Antibiotic FIC ([5]; in combination with Chp2-M1) | Antibiotic FIC ([5]; in combination with Chp4-M1) | Antibiotic FIC ([5]; in combination with Chp6-M1) | Antibiotic FIC ([5]; in combination with Unp2-M1)
did not eliminate biofilm: eradication of biofilm on three additional catheter samples ([4]; Chp2-M1 1 μg/mL and 10 μg/mL, meropenem 1 μg/mL)
4 µg/mL: Antibiotic MIC in checkerboard ([3]; combined with Chp2-M1) | Antibiotic MIC in checkerboard ([3]; combined with Chp2) | Antibiotic MIC in checkerboard ([3]; combined with Chp4-M1) | Antibiotic MIC in checkerboard ([3]; combined with Chp6-M1) | Antibiotic MIC in checkerboard ([3]; combined with Unp2-M1)
0.03125: Antibiotic FIC ([1]; checkerboard, in combination with Unp2-M1)
0.01562 µg/mL: Antibiotic MIC [1, 7] | Antibiotic MIC [1, 8] | Antibiotic MIC in checkerboard ([1]; combined with Chp2) | Antibiotic MIC in checkerboard ([1]; combined with Chp2-M1)
0.007812 µg/mL: Antibiotic MIC [1, 6]
